Experimental data from patent US20200276181A1, “THIENOISOQUINOLINES AND THEIR DERIVATIVES FOR TARGETING TUBULIN, CH-TOG, AURORA A KINASE, TPX2, CDK5RAP2 AND/OR ASPM” (VALORBEC, SEC, priority 2017, published 2020).

How the values were obtained:
HeLa spheroids = assay: Multicellular tumour spheroids; assay type: cell-based, human
Protocol: (§1) FIGS. 5A, 5B, 5C, 5D, 5E, 5F, 5G, 5H, 5I, 5J, 5K, 5L and 5M show how C75 disrupts or reduces the growth of HeLa, HCT116 and A549 spheroids. FIG. 5A) images show HeLa spheroids over time (3 days) before and after treatment with control (1 μM C87; n=10), 250 nM (n=6) or 500 nM (n=10) of C75. The scale bar is 100 μm. FIG. 5B) is a series images of HeLa spheroids after three days of treatment with control (500 nM C87) or 500 nM C75. The spheroids were stained for fluorescein diacetate (to detect live cells) and propidium iodide (to detect dead cells). […] The scale bar is 100 μm. FIG. 5C) is a line graph showing the change in spheroid area (μm^2) for each day and treatment as indicated. Bars show standard deviation and the asterisks are p<0.05 as determined by the student's t test. FIG. 5D) images show HeLa spheroids over 3 days before and after treatment with empty nanoparticles (control; n=3) or 250 nM of nanoparticle-encapsulated C75 (n=3). The scale bar is 100 μm. […] Bars show standard deviation and the asterisks are p<0.05 as determined by the student's t test. FIG. 5F) is a series of images of HCT116 spheroids treated with control (1 μM C87; n=10), 500 nM C75 (n=10) and 1 μM C75 (n=10). […] Bars show standard deviation and the asterisks are p<0.05 as determined by the student's t test. […] Bars show standard deviation and the asterisks are p<0.05 as determined by the student's t test. […]

A549 spheroids = assay: Multicellular tumour spheroids; assay type: cell-based, human
Protocol: as §1

## COc1ccc(S(=O)(=O)N2Cc3ccccc3-c3sc(Br)cc32)cc1 [Compound C75]
HeLa spheroids
  effect on spheroids: disrupt
A549 spheroids
  effect on spheroids: regress the growth
